{"source": "the NIST ThermoML archive (doi:10.1016/j.jct.2016.11.032)", "key": {"[1]": {"assay": "Molar enthalpy of transition or fusion", "conditions": "Crystal; DSC"}, "[2]": {"conditions": "Crystal; DTA"}}, "note": "Numbers after ± are expanded uncertainties.", "data": [{"smiles": "CC(C)(C)C(O)(CCc1ccc(Cl)cc1)Cn1cncn1", "note": "(configuration not stated) [tebuconazole]", "values": [{"measurement": "Molar enthalpy of transition or fusion", "setting": "[1]", "value": "28.9 ± 0.99", "unit": "kJ/mol"}, {"measurement": "Normal melting temperature", "setting": "[2]", "value": "100.32 ± 1.1", "unit": "°C"}]}]}
